Assay results from the supplement of paper PMC10307832.

Experiments:
Assay in all cases: relative viability (nuclei count vs DMSO), 5 days (fraction); higher = more cells survive
[1] = compound: NS(=O)(=O)OC[C@@H]1C[C@@H](n2ccc3c(N[C@H]4CCc5ccccc54)ncnc32)C[C@@H]1O [MLN4924] + COc1cc2c(Oc3ccc(NC(=O)C4(C(=O)Nc5ccc(F)cc5)CC4)cc3F)ccnc2cc1OCCCN1CCOCC1 [Foretinib] (partner 0.25 µM)
In short: (§1)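 Medians of duplicate plates are given as relative viability. That measure is the nuclei count in treated wells divided by the count in vehicle wells. Counts were taken on 4× images of lung cancer cell lines in 1536-well plates, 5 days after pin-tool dosing the day after seeding with one drug alone or a fixed anchor-drug dose plus five library-drug doses (not always all listed) in √10 steps.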

[2] = compound: C1CC(C1)(C(=O)O)C(=O)O.[NH2-].[NH2-].[Pt+2] [Carboplatin] + Nc1ncn([C@H]2C[C@H](O)[C@@H](CO)O2)c(=O)n1 [Decitabine] (partner 2 µM)
In short: as §1

[3] = compound: C1CC(C1)(C(=O)O)C(=O)O.[NH2-].[NH2-].[Pt+2] [Carboplatin] + COc1cccc2cc(-c3nc([C@H]4CC[C@H](C(=O)O)CC4)n4ncnc(N)c34)[nH]c12 [OSI-027] (partner 0.5 µM)
In short: as §1

[4] = compound: CC[C@H](C)N1C=C(C2=C(C=C(C=C21)C3=CN=C(C=C3)N4CCNCC4)C(=O)NCC5=C(C=C(NC5=O)C)C)C [GSK126] + Nc1ncn([C@H]2C[C@H](O)[C@@H](CO)O2)c(=O)n1 [Decitabine] (partner 2 µM)
In short: as §1

Cell Line	relative viability ([1]; first compound 0.04 µM)	relative viability ([1]; first compound 0.1265 µM)	relative viability ([1]; first compound 0.4 µM)	relative viability ([1]; first compound 1.265 µM)	relative viability ([1]; first compound 4 µM)	relative viability ([2]; first compound 0.08 µM)	relative viability ([2]; first compound 0.253 µM)	relative viability ([2]; first compound 0.8 µM)	relative viability ([2]; first compound 2.53 µM)	relative viability ([2]; first compound 8 µM)	relative viability ([3]; first compound 0.08 µM)	relative viability ([3]; first compound 0.253 µM)	relative viability ([3]; first compound 0.8 µM)	relative viability ([3]; first compound 2.53 µM)	relative viability ([3]; first compound 8 µM)	relative viability ([4]; first compound 0.08 µM)	relative viability ([4]; first compound 0.253 µM)	relative viability ([4]; first compound 0.8 µM)	relative viability ([4]; first compound 2.53 µM)	relative viability ([4]; first compound 8 µM)
HCC-78	0.583	0.653	0.84	0.247	0.194	0.659	0.61	0.709	0.656	0.73	0.433	0.368	0.341	0.379	0.375	0.756	0.659	0.683	0.839	0.74
HCC-366	0.907	0.975	0.925	0.447	0.0537	0.322	0.32	0.336	0.251	0.203	1.07	0.979	0.911	0.955	0.486	0.34	0.34	0.336	0.463	0.338
HCC-827	0.993	0.591	0.568	0.238	0.144	0.354	0.321	0.248	0.19	0.304	0.774	0.851	0.783	0.732	0.655	0.396	0.368	0.313	0.325	0.323
HOP-62	0.669	0.312	0.246	0.0894	0.0942	0.234	0.223	0.243	0.195	0.214	0.905	0.808	0.823	0.777	0.726	0.216	0.203	0.21	0.197	0.248
IA-LM	0.765	0.329	0.135	0.0463	0.0394															
LC-2-ad	0.845	0.793	0.592	0.212	0.186	0.753	0.93	0.708	0.776	0.64	0.877	0.825	0.778	0.696	0.404	0.779	0.866	0.717	0.876	0.78
LCLC-97TM1	0.97	0.424	0.69	0.127	0.123	0.299	0.206	0.208	0.218	0.191	0.481	0.615	0.594	0.554	0.474	0.237	0.257	0.218	0.24	0.253
LCLC-103H	0.85	0.896	0.861	0.175	0.15	0.801	0.735	0.747	0.719	0.735	0.456	0.544	0.5	0.468	0.482	0.795	0.855	0.797	0.737	0.759
LK-2	1.35	0.676	0.621	0.265	0.222	0.287	0.33	0.279	0.289	0.335	0.262	0.191	0.21	0.184	0.226	0.42	0.239	0.333	0.273	0.31
